Laboratory results reported in US9656988B2 (Pharmacyclics LLC, priority 2013, dated 2017).
Like-named read-outs stand apart in the source and are kept apart here.

Molecular target: BTK (Homo sapiens (Human), UniProt Q06187)
Assay: Btk in vitro inhibitory activity (one of Method A TR-FRET, Method B electrophoretic mobility shift, Method C radiometric filter binding)
Assay type: biochemical
[1] = determined using one of the methods of Example 355a, 355b and 355c, read-out: BTK IC50

BTK, sequence (Q06187 whole entry): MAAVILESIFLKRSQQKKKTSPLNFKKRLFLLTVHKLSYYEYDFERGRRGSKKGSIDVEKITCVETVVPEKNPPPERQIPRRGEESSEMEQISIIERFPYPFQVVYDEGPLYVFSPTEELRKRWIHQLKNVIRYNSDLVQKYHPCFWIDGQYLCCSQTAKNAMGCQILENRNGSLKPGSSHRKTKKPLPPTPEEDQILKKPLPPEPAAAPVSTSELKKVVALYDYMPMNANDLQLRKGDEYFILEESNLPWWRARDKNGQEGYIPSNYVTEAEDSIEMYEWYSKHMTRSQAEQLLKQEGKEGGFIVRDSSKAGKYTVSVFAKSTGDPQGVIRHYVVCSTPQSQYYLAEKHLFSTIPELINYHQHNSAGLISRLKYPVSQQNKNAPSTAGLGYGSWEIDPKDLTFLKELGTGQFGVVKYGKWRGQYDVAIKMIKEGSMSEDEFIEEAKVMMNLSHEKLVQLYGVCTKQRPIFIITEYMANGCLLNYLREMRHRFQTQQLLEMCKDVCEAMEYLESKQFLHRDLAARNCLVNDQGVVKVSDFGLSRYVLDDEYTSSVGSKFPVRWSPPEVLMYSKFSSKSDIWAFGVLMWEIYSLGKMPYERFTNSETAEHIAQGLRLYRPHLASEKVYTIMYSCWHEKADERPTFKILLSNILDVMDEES

SMILES	IC50 [1]	IC50 (read-out: Btk (IC50))	IC50
N#CCC(=O)N1CCC(c2ccc(Nc3nc(N4CCC[C@@H](NC(=O)N5CCCCC5)C4)nnc3C(N)=O)cc2)CC1 [Example 341, (R)-5-(4-(1-(2-cyanoacetyl)piperidin-4-yl)phenylamino)-3-(3-(piperidine-1-carboxamido)piperidin-1-yl)-1,2,4-triazine-6-carboxamide]	< 0.01 µM	–	0.01 to 0.1 µM
CCOc1ccc(C(=O)N[C@@H]2CCCN(c3nnc(C(N)=O)c(Nc4ccc(C(=N)N5CCCC5)cc4)n3)C2)cc1 [Example 343, (R)-3-(3-(4-ethoxybenzamido)piperidin-1-yl)-5-(4-(imino(pyrrolidin-1-yl)methyl)phenylamino)-1,2,4-triazine-6-carboxamide]	< 0.01 µM	< 0.01 µM	–
CCOc1ccc(C(=O)N[C@@H]2CCCN(c3nnc(C(N)=O)c(Nc4ccc(C5=NCCN5C)cc4)n3)C2)cc1 [Example 344, (R)-3-(3-(4-ethoxybenzamido)piperidin-1-yl)-5-(4-(1-methyl-4,5-dihydro-1H-imidazol-2-yl)phenylamino)-1,2,4-triazine-6-carboxamide]	0.01 to 0.1 µM	–	–
COCCOc1ccc(Nc2nc(N3CCC[C@@H](NC(=O)N[C@@H](C)c4ccccc4)C3)cnc2C(N)=O)cc1 [Example 346, 3-(4-(2-methoxyethoxy)phenylamino)-5-((R)-3-(3-((S)-1-phenylethyl)ureido)piperidin-1-yl)pyrazine-2-carboxamide]	0.01 to 0.1 µM	–	–
COCCOc1ccc(Nc2nc(N3CCC[C@@H](NC(=O)N[C@H](C)c4ccccc4)C3)cnc2C(N)=O)cc1 [Example 347, 3-(4-(2-methoxyethoxy)phenylamino)-5-((R)-3-(3-((R)-1-phenylethyl)ureido)piperidin-1-yl)pyrazine-2-carboxamide]	0.01 to 0.1 µM	–	–
Cc1cc(Nc2nc(N[C@@H]3CCCCN(C(=O)N(C)C)C3)cnc2C(N)=O)sn1 [Example 348, (R)-3-(5-carbamoyl-6-(3-methylisothiazol-5-ylamino)pyrazin-2-ylamino)-N,N-dimethylazepane-1-carboxamide]	0.01 to 0.1 µM	–	–
CN(C(=O)N[C@@H]1CCCN(c2cnc(C(N)=O)c(NC3CCCC3)n2)C1)c1ccccc1 [Example 351, (R)-3-(cyclopentylamino)-5-(3-(3-methyl-3-phenylureido)piperidin-1-yl)pyrazine-2-carboxamide]	1 to 10 µM	–	–
NC(=O)c1ncc(N2CCC[C@@H](NC(=O)NC3CCOCC3)C2)nc1NC1CCOCC1 [Example 354, (R)-5-(3-(3-(tetrahydro-2H-pyran-4-yl)ureido)piperidin-1-yl)-3-(tetrahydro-2H-pyran-4-ylamino)pyrazine-2-carboxamide]	1 to 10 µM	–	–

Second part, led by results:

IC50 [1]	IC50 (read-out: Btk (IC50))	SMILES	IC50
< 0.01 µM	< 0.01 µM	CCC(=O)N1CCC(c2ccc(Nc3nc(N4CCC[C@@H](NC(=O)N5CCCCC5)C4)nnc3C(N)=O)cc2)CC1 [Example 339, (R)-3-(3-(piperidine-1-carboxamido)piperidin-1-yl)-5-(4-(1-propionylpiperidin-4-yl)phenylamino)-1,2,4-triazine-6-carboxamide]	–
< 0.01 µM	–	C=CC(=O)N1CCC(c2ccc(Nc3nc(N4CCC[C@@H](NC(=O)N5CCCCC5)C4)nnc3C(N)=O)cc2)CC1 [Example 340]	–
0.01 to 0.1 µM	0.01 to 0.1 µM	CCOc1ccc(C(=O)N[C@@H]2CCCN(c3nnc(C(N)=O)c(Nc4ccc(C(=N)N(C)C)cc4)n3)C2)cc1 [Example 342, (R)-5-(4-(N,N-dimethylcarbamimidoyl)phenylamino)-3-(3-(4-ethoxybenzamido)piperidin-1-yl)-1,2,4-triazine-6-carboxamide]	–
1 to 10 µM	–	CN(C(=O)N[C@@H]1CCCN(c2cnc(C(N)=O)c(NC3CC3)n2)C1)c1ccccc1 [Example 350, (R)-3-(cyclopropylamino)-5-(3-(3-methyl-3-phenylureido)piperidin-1-yl)pyrazine-2-carboxamide]	–
1 to 10 µM	–	CN(C(=O)N[C@@H]1CCCN(c2cnc(C(N)=O)c(NC3CC3)n2)C1)c1cc(Cl)cc(C(F)(F)F)c1 [Example 352, (R)-5-(3-(3-(3-chloro-5-(trifluoromethyl)phenyl)-3-methylureido)piperidin-1-yl)-3-(cyclopropylamino)pyrazine-2-carboxamide]	–
1 to 10 µM	–	CN(C(=O)N[C@@H]1CCCN(c2cnc(C(N)=O)c(NC3CCOCC3)n2)C1)c1cc(Cl)cc(C(F)(F)F)c1 [Example 353, (R)-5-(3-(3-(3-chloro-5-(trifluoromethyl)phenyl)-3-methylureido)piperidin-1-yl)-3-(tetrahydro-2H-pyran-4-ylamino)pyrazine-2-carboxamide]	–
